Experimental data: patent publication US10933032B2, “Methods for the treatment of cancer using coenzyme Q10 combination therapies” (Berg LLC, priority 2013, dated 2021)

Columns and labels:
[1] = test system: MIAPaCa-2 human pancreatic tumor cells; experiment: Xenogeneic mouse human pancreatic cancer model, survival; type: in vivo, NOD scid gamma (NSG) mice; conditions: Example 1, Regimen 1, single agent: IV 4% Coenzyme Q10 50 mg/kg/day, or IV gemcitabine 150 mg/kg/week for 3 weeks with one week rest; FIG. 1
[2] = test system: MIAPaCa-2 human pancreatic tumor cells; experiment: Xenogeneic mouse human pancreatic cancer model, tumors harvested at mortality (size, weight, vasculature, palpation); type: in vivo, NOD scid gamma (NSG) mice; conditions: Example 1, single agents: Group 2 Coenzyme Q10 IV 50 mg/kg/day; Group 3 gemcitabine 150 mg/kg/week; FIG. 2
[3] = test system: acute lymphoblastic leukemias; conditions: in combination with 60 mg/m^2 of prednisone, given daily; usually within 4 to 6 weeks; cited from earlier work
[4] = test system: Mycosis fungoides (cutaneous T Cell lymphoma); conditions: methotrexate as a single agent; cited from earlier work

## Nc1ccn([C@@H]2O[C@H](CO)[C@@H](O)C2(F)F)c(=O)n1 [gemcitabine, reference compound]
[1]
  Survival (prolongation of life) compared to untreated control: prolongation of life as compared to untreated control
[2]
  Growth of pancreatic tumors (tumor size at time of death) vs control: inhibited the growth of pancreatic tumors

## CN(Cc1cnc2nc(N)nc(N)c2n1)c1ccc(C(=O)N[C@@H](CCC(=O)O)C(=O)O)cc1 [Methotrexate]
[3]
  Remissions, patients treated: prednisone, given daily, produced remissions in 50% of patients treated,
[4]
  Clinical responses, patients treated: 50% of patients treated. Dosage in early stages is usually 5 to 50 mg once
